Counter-ions that a name gives are not always drawn.
What follows are molecules tested against T1, human PTH1 receptor (Homo sapiens, UniProt Q03431) (assay: In vitro cAMP signal activity in HKRK-B7 cells (LLC-PK1 cells overexpressing the human PTH1 receptor)). Conditions: HKRK-B7 cells; compound at 1×10^−3 M; cAMP produced as percentage of that produced by hPTH(1-34) at 100 nM.
T1 sequence (Q03431 27-593): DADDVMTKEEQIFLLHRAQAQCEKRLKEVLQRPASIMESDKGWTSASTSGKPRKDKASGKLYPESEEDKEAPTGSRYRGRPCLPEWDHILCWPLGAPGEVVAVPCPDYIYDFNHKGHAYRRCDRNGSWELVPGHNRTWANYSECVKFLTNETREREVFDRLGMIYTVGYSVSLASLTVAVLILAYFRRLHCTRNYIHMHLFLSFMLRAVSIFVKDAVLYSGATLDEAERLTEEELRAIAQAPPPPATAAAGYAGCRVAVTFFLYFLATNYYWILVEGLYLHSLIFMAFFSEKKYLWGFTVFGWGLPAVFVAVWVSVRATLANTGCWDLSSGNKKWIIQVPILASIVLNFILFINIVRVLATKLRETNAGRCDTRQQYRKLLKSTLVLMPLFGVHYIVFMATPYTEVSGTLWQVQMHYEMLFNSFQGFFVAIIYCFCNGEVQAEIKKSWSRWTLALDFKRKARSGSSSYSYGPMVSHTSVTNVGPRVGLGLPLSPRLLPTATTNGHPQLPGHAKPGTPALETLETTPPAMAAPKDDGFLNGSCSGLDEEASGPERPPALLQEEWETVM
Type: cell-based

cAMP production activity (%)	Structure (SMILES)
35%	CNc1cc(C)c(CCS(=O)(=O)N2CCC3(CC2)N=C(C2CCCN2)NC3=O)c(C)c1 (stereo not shown) [Compound 1286, 8-[2-(2,6-Dimethyl-4-methylamino-phenyl)-ethanesulfonyl]-2-pyrrolidin-2-yl-1,3,8-triaza-spiro[4.5]dec-1-en-4-one dihydrochloride]
64%	CNc1cc(C)c(CCS(=O)(=O)N2CCC3(CC2)N=C(C(C)(F)F)NC3=O)c(C)c1.Cl [Compound 1287, 2-(1,1-difluoro-ethyl)-8-[2-(2,6-dimethyl-4-methylamino-phenyl)-ethanesulfonyl]-1,3,8-triaza-spiro[4.5]dec-1-en-4-one hydrochloride]
54%	Cl.[2H]C([2H])([2H])Nc1cc(C)c(/C=C/S(=O)(=O)N2CCC3(CC2)N=C(c2ccc(F)c(C(F)(F)F)c2)NC3=O)c(C)c1 [Compound 1288, 8-[(E)-2-(2,6-dimethyl-4-[1,1,1-^2H3]methylamino-phenyl)-ethenesulfonyl]-2-(4-fluoro-3-trifluoromethyl-phenyl)-1,3,8-triaza-spiro[4.5]dec-1-en-4-one hydrochloride]
17%	CNCc1cc(C)c(/C=C/S(=O)(=O)N2CCC3(CC2)N=C(C2CCC(C)CC2)NC3=O)c(C)c1 (stereo not shown) [Compound 1289, 8-[(E)-2-(2,6-Dimethyl-4-methylaminomethyl-phenyl)-ethenesulfonyl]-2-(4-methyl-cyclohexyl)-1,3,8-triaza-spiro[4.5]dec-1-en-4-one]

The remaining lines, values behind:

Structure (SMILES)	cAMP production activity (%)
Cc1cc(C(=O)N2CCC(O)(CF)CC2)cc(C)c1/C=C/S(=O)(=O)N1CCC2(CC1)N=C(c1ccc3c(c1)OC(F)(F)O3)NC2=O [Compound 1280, 2-(2,2-difluoro-benzo[1,3]dioxol-5-yl)-8-{(E)-2-[4-(4-fluoromethyl-4-hydroxy-piperidine-1-carbonyl)-2,6-dimethyl-phenyl]-ethenesulfonyl}-1,3,8-triaza-spiro[4.5]dec-1-en-4-one]	74%
Cc1cc(C(=O)N2CCC(O)(CF)CC2)cc(C)c1CCS(=O)(=O)N1CCC2(CC1)N=C(c1ccc3c(c1)OC(F)(F)C(F)(F)O3)NC2=O [Compound 1281, 8-{2-[4-(4-fluoromethyl-4-hydroxy-piperidine-1-carbonyl)-2,6-dimethyl-phenyl]-ethanesulfonyl}-2-(2,2,3,3-tetrafluoro-2,3-dihydro-benzo[1,4]dioxin-6-yl)-1,3,8-triaza-spiro[4.5]dec-1-en-4-one]	95%
Cc1cc(C(=O)N2CCC(O)CC2)cc(C)c1/C=C/S(=O)(=O)N1CCC2(CC1)N=C(c1cccc(CC#N)c1)NC2=O [Compound 1282, [3-(8-{(E)-2-[4-(4-Hydroxy-piperidine-1-carbonyl)-2,6-dimethyl-phenyl]-ethenesulfonyl}-4-oxo-1,3,8-triaza-spiro[4.5]dec-1-en-2-yl)-phenyl]-acetonitrile]	63%
Cc1cc(OC2CCNCC2)ccc1/C=C/S(=O)(=O)N1CCC2(CC1)N=C(c1cccc(OC(F)(F)F)c1)NC2=O [Compound 1283, 8-{(E)-2-[2-Methyl-4-(piperidin-4-yloxy)-phenyl]-ethenesulfonyl}-2-(3-trifluoromethoxy-phenyl)-1,3,8-triaza-spiro[4.5]dec-1-en-4-one trifluoroacetate]	18%
Cc1cc(CN)ccc1CCS(=O)(=O)N1CCC2(CC1)N=C(C1CCC(CCC(F)(F)F)CC1)NC2=O.O=C(O)C(F)(F)F (stereo not shown) [Compound 1284, 8-[2-(4-aminomethyl-2-methyl-phenyl)-ethanesulfonyl]-2-[4-(3,3,3-trifluoro-propyl)-cyclohexyl]-1,3,8-triaza-spiro[4.5]dec-1-en-4-one]	2.5%
Cc1cc(N2CCNCC2=O)ccc1/C=C/S(=O)(=O)N1CCC2(CC1)N=C(C1CCC(C)CC1)NC2=O (stereo not shown) [Compound 1285, 2-(4-methyl-cyclohexyl)-8-{(E)-2-[2-methyl-4-(2-oxo-piperazin-1-yl)-phenyl]-ethenesulfonyl}-1,3,8-triaza-spiro[4.5]dec-1-en-4-one]	67%

From US9169254B2, “Spiroimidazolone derivative” (Chugai Seiyaku Kabushiki Kaisha, priority 2009, dated 2015)
